# Data as given in patent US6376535B2, “Oxygen-containing heterocyclic compounds” (Kyowa Hakko Kogyo Co., Ltd., priority 1998, dated 2002).
# How the values were obtained:
# [1] = target: T1, Recombinant Human PDE IV Enzyme (HSPDE4A) (Homo sapiens, UniProt P27815); assay: Inhibition Test on Recombinant Human PDE IV Enzyme; assay type: biochemical; conditions: substrate [3H]cAMP 1 μmol/L
# T1 construct: made in house; host or cells: E. coli
# Description: Inhibition Test on Recombinant Human PDE IV Enzyme
# Human phosphodiesterase cDNA (HSPDE4A) was isolated from testicles. Its predicted amino acid sequence is identical with the sequence (HSPDE4A5) reported by Bolger, G. et al. (Mol. Cell. Biol., 6558 (1993)) except that 223 amino acids have been deleted from the N-terminal thereof. This recombinant protein was expressed by an E. coli expression plasmid and then purified. The PDE activity was measured in the following 2-step process according to the method of Kincaid, R. and Manganiello, V. [Method. Enzymol., 159, 457 (1988)]. The substrate used was [^3H]cAMP (final concentration: 1 μmol/L), and the reaction was performed in a standard mixture containing N,N-bis(2-hydroxyethyl)-2-aminoethanesulfonic acid (50 mmol/L, pH 7.2), MgCl2 (1 mmol/L) and soybean trypsin inhibitor (0.1 mg/ml). The reaction was initiated by adding the enzyme thereto, and the mixture was incubated at 30° C. for 10 to 30 minutes. The reaction was quenched by hydrochloric acid, and the formed 5′-AMP was completely decomposed with […]. This sample was subjected to chromatography on DEAE-Sephadex A-25, and the eluted [^3H]adenosine was counted […] with a scintillation counter. The test compound was added after dissolved (concentration: 1.7%) in DMSO.
# T1 sequence (P27815 224-886 limits assumed): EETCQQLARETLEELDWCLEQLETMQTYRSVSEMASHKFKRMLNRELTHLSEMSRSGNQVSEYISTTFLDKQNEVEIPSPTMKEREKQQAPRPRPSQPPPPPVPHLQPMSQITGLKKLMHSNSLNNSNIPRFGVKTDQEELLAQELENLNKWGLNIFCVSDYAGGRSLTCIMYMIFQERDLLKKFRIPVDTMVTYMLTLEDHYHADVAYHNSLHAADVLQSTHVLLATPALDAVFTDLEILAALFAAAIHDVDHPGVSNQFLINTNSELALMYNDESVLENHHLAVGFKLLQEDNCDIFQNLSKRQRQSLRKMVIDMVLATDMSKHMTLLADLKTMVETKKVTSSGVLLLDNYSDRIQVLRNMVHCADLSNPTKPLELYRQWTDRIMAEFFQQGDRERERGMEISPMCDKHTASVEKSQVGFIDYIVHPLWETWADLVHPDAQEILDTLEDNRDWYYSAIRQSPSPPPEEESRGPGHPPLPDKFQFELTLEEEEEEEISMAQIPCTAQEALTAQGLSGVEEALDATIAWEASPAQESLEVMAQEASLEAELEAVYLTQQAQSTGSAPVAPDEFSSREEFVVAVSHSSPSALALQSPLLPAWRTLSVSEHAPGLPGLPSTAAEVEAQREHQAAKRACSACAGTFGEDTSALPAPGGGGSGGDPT
melting point [°C],enzyme inhibitory activity [1],Structure (SMILES)
–,over 87%,"COc1ccc(C2(C#N)CCC(C(=O)O)CC2)c2c1OCCO2 (stereo not drawn) [Compound 5, cis-4-Cyano-4-(8-methoxy-1,4-benzodioxan-5-yl)cyclohexanecarboxylic acid]"
110 to 112,–,"CCOC(=O)C=C1CCC(C#N)(c2ccc(OC)c3c2OCCO3)CC1 (stereo not drawn) [Compound 10, Ethyl 4-cyano-4-(8-methoxy-1,4-benzodioxan-5-yl)cyclohexanylideneacetate]"
112 to 113,–,"COC=C1CCC(C#N)(c2ccc(OC)c3c2OCCO3)CC1 (stereo not drawn) [Compound 6, 1-(8-Methoxy-1,4-benzodioxan-5-yl)-4-methoxymethylenecyclohexane carbonitrile]"

# Further lines, the compound ahead of its results:
Structure (SMILES),melting point [°C],enzyme inhibitory activity [1]
"COc1ccc(-c2cccc3c2COC3=O)c2c1OCCO2 [Compound 22, 4-(8-Methoxy-1,4-benzodioxan-5-yl)-1(3H)-isobenzofuranone]",158 to 160,–
"COc1ccc(-c2ccc3c(c2)C(=O)NC3=O)c2c1OCCO2 [Compound 23, 4-(8-Methoxy-1,4-benzodioxan-5-yl)phthalimide]",285 to 287,–
"COc1ccc(C2(C#N)CCC(=CC(=O)O)CC2)c2c1OCCO2 (stereo not drawn) [Compound 11, 4-Cyano-4-(8-methoxy-1,4-benzodioxan-5-yl)cyclohexanylideneacetic acid]",203 to 204,–
